Data from ChEMBL document CHEMBL1143464, “Trifluoromethyl group as a pharmacophore: effect of replacing a CF3 group on binding and agonist activity of a glucocorticoid receptor ligand” (Bioorg Med Chem Lett, 2005).

Columns and labels:
Progesterone receptor = biological target: T1, Progesterone receptor (Homo sapiens, UniProt P06401); experiment: Binding affinity towards progesterone receptor using fluorescence polarization competitive binding assay
T1 sequence (P06401 whole entry): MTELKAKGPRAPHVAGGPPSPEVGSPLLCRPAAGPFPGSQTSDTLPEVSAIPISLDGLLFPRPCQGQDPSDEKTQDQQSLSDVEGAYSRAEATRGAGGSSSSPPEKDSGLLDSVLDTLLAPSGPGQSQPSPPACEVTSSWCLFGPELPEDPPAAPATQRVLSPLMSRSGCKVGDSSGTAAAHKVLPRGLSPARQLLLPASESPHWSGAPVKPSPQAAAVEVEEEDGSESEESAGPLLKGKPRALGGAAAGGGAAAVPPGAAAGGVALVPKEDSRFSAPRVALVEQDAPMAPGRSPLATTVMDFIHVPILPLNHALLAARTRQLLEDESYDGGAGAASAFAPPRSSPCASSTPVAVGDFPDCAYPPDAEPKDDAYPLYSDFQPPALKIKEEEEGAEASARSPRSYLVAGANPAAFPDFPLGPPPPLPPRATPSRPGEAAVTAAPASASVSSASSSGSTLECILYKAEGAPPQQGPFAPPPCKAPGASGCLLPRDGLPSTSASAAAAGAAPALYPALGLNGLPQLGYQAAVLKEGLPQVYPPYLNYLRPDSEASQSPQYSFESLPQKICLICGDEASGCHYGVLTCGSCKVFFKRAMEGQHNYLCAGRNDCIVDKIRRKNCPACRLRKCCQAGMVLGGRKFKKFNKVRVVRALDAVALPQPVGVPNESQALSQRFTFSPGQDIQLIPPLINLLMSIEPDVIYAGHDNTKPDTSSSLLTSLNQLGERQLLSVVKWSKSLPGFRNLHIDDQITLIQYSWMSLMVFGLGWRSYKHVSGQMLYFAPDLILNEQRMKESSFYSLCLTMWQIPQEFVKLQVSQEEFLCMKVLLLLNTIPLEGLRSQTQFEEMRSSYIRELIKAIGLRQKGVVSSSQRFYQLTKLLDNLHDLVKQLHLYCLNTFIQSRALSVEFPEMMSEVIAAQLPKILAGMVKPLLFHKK

Glucocorticoid receptor [1] = biological target: T2, Glucocorticoid receptor (Homo sapiens, UniProt P04150); experiment: Binding affinity towards glucocorticoid receptor using fluorescence polarization competitive binding assay
T2 sequence (P04150 whole entry): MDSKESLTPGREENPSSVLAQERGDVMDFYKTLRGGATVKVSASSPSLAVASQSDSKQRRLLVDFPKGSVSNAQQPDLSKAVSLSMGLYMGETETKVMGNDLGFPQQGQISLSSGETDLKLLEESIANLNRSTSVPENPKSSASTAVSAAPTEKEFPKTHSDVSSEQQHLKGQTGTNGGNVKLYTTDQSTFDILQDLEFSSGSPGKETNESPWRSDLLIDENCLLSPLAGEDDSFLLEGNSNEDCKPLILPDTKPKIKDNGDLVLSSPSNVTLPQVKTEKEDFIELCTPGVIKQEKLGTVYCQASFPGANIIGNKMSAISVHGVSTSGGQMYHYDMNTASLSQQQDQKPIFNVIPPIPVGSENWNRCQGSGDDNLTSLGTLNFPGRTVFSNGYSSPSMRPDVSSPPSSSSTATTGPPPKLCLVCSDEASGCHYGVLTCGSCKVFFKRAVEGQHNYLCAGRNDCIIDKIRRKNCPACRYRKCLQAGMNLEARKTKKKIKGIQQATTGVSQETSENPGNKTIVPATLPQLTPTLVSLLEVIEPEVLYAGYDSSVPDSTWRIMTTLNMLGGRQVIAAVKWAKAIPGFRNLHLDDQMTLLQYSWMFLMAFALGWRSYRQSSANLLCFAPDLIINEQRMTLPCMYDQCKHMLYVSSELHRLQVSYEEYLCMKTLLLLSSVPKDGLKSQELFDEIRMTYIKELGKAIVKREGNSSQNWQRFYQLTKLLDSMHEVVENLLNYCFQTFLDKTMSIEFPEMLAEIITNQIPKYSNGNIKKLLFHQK

[2] = biological target: T3, Mineralocorticoid receptor (Homo sapiens, UniProt P08235); experiment: Binding affinity towards mineralocorticoid receptor using fluorescence polarization competitive binding assay
T3 sequence (P08235 whole entry): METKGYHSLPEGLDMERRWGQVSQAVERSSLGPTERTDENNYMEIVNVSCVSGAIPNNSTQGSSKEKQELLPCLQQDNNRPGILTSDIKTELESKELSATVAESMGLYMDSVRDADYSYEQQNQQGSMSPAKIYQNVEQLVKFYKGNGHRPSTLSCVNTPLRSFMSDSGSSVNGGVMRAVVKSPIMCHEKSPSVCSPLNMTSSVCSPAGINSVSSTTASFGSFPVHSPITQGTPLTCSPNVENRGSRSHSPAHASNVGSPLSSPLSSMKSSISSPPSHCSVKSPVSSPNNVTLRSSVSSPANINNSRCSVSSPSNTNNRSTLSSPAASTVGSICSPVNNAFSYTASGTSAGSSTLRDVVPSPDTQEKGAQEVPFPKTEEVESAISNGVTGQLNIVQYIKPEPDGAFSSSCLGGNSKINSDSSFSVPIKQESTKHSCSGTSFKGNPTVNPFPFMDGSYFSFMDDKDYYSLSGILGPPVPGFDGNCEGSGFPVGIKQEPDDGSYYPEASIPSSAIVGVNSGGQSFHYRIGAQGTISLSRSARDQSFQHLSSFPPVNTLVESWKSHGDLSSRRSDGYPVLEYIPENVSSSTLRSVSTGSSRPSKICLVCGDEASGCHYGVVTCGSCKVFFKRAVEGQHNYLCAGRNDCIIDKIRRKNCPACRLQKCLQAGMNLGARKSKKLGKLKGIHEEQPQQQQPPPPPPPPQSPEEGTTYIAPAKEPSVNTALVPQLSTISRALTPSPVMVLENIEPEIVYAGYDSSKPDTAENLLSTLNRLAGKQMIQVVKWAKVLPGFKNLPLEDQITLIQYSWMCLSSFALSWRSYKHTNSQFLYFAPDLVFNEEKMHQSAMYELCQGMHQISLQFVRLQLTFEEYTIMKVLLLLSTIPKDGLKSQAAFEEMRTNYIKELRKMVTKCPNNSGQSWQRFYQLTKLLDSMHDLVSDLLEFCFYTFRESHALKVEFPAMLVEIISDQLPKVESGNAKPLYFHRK

Glucocorticoid receptor [3] = biological target: T2, Glucocorticoid receptor; experiment: Effective concentration against inhibition of Dexamethasone induced glucocorticoid receptor transactivation of mouse mammary tumor virus luciferase gene in HeLa cells; assay type: cell-based
Glucocorticoid receptor [4] = biological target: T2, Glucocorticoid receptor; experiment: Effective agonist concentration for transcriptional repression of IL-6 production in IL-1 stimulated human foreskin fibroblasts; assay type: functional

Structure (SMILES)	IC50 (Progesterone receptor) [nM]	IC50 (Glucocorticoid receptor [1]) [nM]	IC50 [2] [nM]	EC50 (Glucocorticoid receptor [3]) [nM]	EC50 (Glucocorticoid receptor [4]) [nM]
Cc1cccc(CC(O)(CC(C)(C)c2cc(F)ccc2O)C(=O)Nc2ccc3c(c2)COC3=O)c1 (stereo unspecified)	34	52	–	–	–
Cc1cc(C)cc(CC(O)(CC(C)(C)c2cc(F)ccc2O)C(=O)Nc2ccc3c(c2)COC3=O)c1 (stereo unspecified)	51	470	–	–	–
CC(C)(CC(O)(C(=O)Nc1ccc2c(c1)COC2=O)C(F)(F)F)c1cc(F)ccc1O (stereo unspecified)	16	6	30	150	45
CC(C)(CC(O)(CC1CCCCC1)C(=O)Nc1ccc2c(c1)COC2=O)c1cc(F)ccc1O (stereo unspecified)	42	20	140	130	–
Cc1noc(=O)c2ccc(NC(=O)C(O)(CC3CCCCC3)CC(C)(C)c3ccccc3)cc12 (stereo unspecified)	40	9	–	–	–
COc1ccc(F)cc1C(C)(C)CC(O)(C(=O)Nc1ccc2c(c1)COC2=O)C(F)(F)F (stereo unspecified)	85	230	–	–	–
CC(O)(CC(C)(C)c1ccccc1)C(=O)Nc1ccc2c(c1)COC2=O (stereo unspecified)	85	370	60	2370	–
Cc1noc(=O)c2ccc(NC(=O)C(O)(CC3CCCCC3)CC(C)(C)c3cc(F)ccc3O)cc12 (stereo unspecified)	35	7	104	120	–
CC(C)(CC(O)(Cc1ccccc1)C(=O)Nc1ccc2c(c1)COC2=O)c1cc(F)ccc1O (stereo unspecified)	35	60	190	420	–
CC(C)(CC(O)(C(=O)Nc1ccc2c(c1)COC2=O)C(F)(F)F)c1ccccc1 (stereo unspecified)	36	79	215	150	–
CC(C)(C)c1ccc(CC(O)(CC(C)(C)c2ccccc2)C(=O)Nc2ccc3c(c2)COC3=O)cc1 (stereo unspecified)	330	72	175	760	–
CC(C)C(O)(CC(C)(C)c1ccccc1)C(=O)Nc1ccc2c(c1)COC2=O (stereo unspecified)	210	200	315	620	–
Cc1noc(=O)c2ccc(NC(=O)C(O)(CC(C)(C)c3cc(F)ccc3O)C(F)(F)F)cc12 (stereo unspecified)	22	4	41	–	10
CC(C)(CC(O)(Cc1ccc(-c2ccccc2)cc1)C(=O)Nc1ccc2c(c1)COC2=O)c1ccccc1 (stereo unspecified)	180	740	–	–	–
COc1ccc(F)cc1C(C)(C)CC(O)(CNc1ccc2c(c1)COC2=O)Cc1ccccc1 (stereo unspecified)	80	81	195	610	–
COc1ccc(F)cc1C(C)(C)CC(O)(Cc1ccccc1)C(=O)Nc1ccc2c(c1)COC2=O (stereo unspecified)	35	52	–	–	–

Structure (SMILES)	IC50 (Progesterone receptor) [nM]	IC50 (Glucocorticoid receptor [1]) [nM]	IC50 [2] [nM]	EC50 (Glucocorticoid receptor [3]) [nM]	EC50 (Glucocorticoid receptor [4]) [nM]
CC(C)(CC(O)(Cc1ccccc1)C(=O)Nc1ccc2c(c1)COC2=O)c1ccccc1 (stereo unspecified)	30	13	160	205	–
CC(C)(CC(O)(Cc1ccc2ccccc2c1)C(=O)Nc1ccc2c(c1)COC2=O)c1ccccc1 (stereo unspecified)	48	110	–	–	–
Cc1noc(=O)c2ccc(NC(=O)C(O)(Cc3ccccc3)CC(C)(C)c3ccccc3)cc12 (stereo unspecified)	30	7	–	–	–
CC(C)(CC(O)(Cc1ccccn1)C(=O)Nc1ccc2c(c1)COC2=O)c1ccccc1 (stereo unspecified)	400	760	–	–	–
CC(C)(CC(O)(Cc1cccc(O)c1)C(=O)Nc1ccc2c(c1)COC2=O)c1ccccc1 (stereo unspecified)	44	120	–	–	–
CC(C)(CC(O)(Cc1ccccc1O)C(=O)Nc1ccc2c(c1)COC2=O)c1ccccc1 (stereo unspecified)	47	61	–	–	–
Cc1noc(=O)c2ccc(NC(=O)C(O)(Cc3ccccc3)CC(C)(C)c3cc(F)ccc3O)cc12 (stereo unspecified)	32	8	104	130	–
CC(C)(CC(O)(C(=O)Nc1ccc2c(c1)COC2=O)c1ccccc1)c1ccccc1 (stereo unspecified)	240	460	–	–	–
CC(C)(CC(O)C(=O)Nc1ccc2c(c1)COC2=O)c1ccccc1 (stereo unspecified)	> 2000	> 2000	–	–	–
Cc1ccccc1CC(O)(CC(C)(C)c1cc(F)ccc1O)C(=O)Nc1ccc2c(c1)COC2=O (stereo unspecified)	36	48	–	–	–
CC(C)(CC(Cc1ccccc1)C(=O)Nc1ccc2c(c1)COC2=O)c1ccccc1 (stereo unspecified)	2000	> 2000	–	–	–
CC(C)(CC(O)(CCc1ccccc1)C(=O)Nc1ccc2c(c1)COC2=O)c1ccccc1 (stereo unspecified)	59	57	–	–	–
CC(C)(CC(O)(Cc1cc(O)cc(O)c1)C(=O)Nc1ccc2c(c1)COC2=O)c1ccccc1 (stereo unspecified)	160	> 2000	–	–	–
CC(C)(CC(O)(CC1CCCCC1)C(=O)Nc1ccc2c(c1)COC2=O)c1ccccc1 (single isomer, unassigned)	35	9	–	–	–
CC(C)(CC(O)(CC1CCCCC1)C(=O)Nc1ccc2c(c1)COC2=O)c1ccccc1 (stereo in doubt)	210	320	–	–	–
CC(C)(CC(O)(CC1CCCCC1)C(=O)Nc1ccc2c(c1)COC2=O)c1ccccc1 (stereo in doubt; 6)	19	9	170	140	–
